From ChEMBL document CHEMBL3885881, “DrugMatrix”

Organism: Rattus norvegicus
Experiment: DrugMatrix - Regimen: Daily Repeat
Type: toxicity, organism-based, Sprague-Dawley
Design: regimen Daily Repeat, gender Male, age 6-8 weeks
Conditions: in vivo, po, route oral GAVAGE, vehicle 100 % WATER; for ABSOLUTE BASOPHIL / ABSOLUTE EOSINOPHIL / ABSOLUTE LYMPHOCYTE / ABSOLUTE MONOCYTE / ABSOLUTE SEGMENTED NEUTROPHIL / BASOPHIL / EOSINOPHIL / ERYTHROCYTE COUNT / HEMATOCRIT / HEMOGLOBIN / LEUKOCYTE COUNT / LYMPHOCYTE / MEAN CORPUSCULAR HEMOGLOBIN / MEAN CORPUSCULAR HEMOGLOBIN CONCENTRATION / MEAN CORPUSCULAR VOLUME / MONOCYTE / NEUTROPHIL / NUCLEATED RED BLOOD CELLS / PLATELET COUNT: tissue Blood; for ALANINE AMINOTRANSFERASE / ALBUMIN / ALKALINE PHOSPHATASE / ASPARTATE AMINOTRANSFERASE / BLOOD UREA NITROGEN / CARBON DIOXIDE / CHLORIDE / CHOLESTEROL / CREATINE PHOSPHOKINASE / CREATININE / GLUCOSE / LACTATE DEHYDROGENASE / LIPASE / PHOSPHORUS / POTASSIUM / SODIUM / TOTAL BILIRUBIN / TOTAL PROTEIN / URIC ACID: tissue Plasma
[1] = 0 mg/kg, 72 h, dose level Control, time 3 day
[2] = 0 mg/kg, 120 h, dose level Control, time 5 day
[3] = 15 mg/kg, 72 h, dose level Low, time 3 day

NNC(=O)c1ccncc1 [ISONIAZID]
ABSOLUTE BASOPHIL [1]: 0 CELLS/uL | ABSOLUTE EOSINOPHIL [1]: 46 CELLS/uL | ABSOLUTE LYMPHOCYTE [1]: 10225.67 CELLS/uL | ABSOLUTE MONOCYTE [1]: 319.33 CELLS/uL | ABSOLUTE SEGMENTED NEUTROPHIL [1]: 1242.33 CELLS/uL | BASOPHIL [1]: 0% | EOSINOPHIL [1]: 0.33% | ERYTHROCYTE COUNT [1]: 5.17 x10E6/uL | HEMATOCRIT [1]: 33.43% | HEMOGLOBIN [1]: 12.55 G/DL | LEUKOCYTE COUNT [1]: 11.83 x10E3/uL | LYMPHOCYTE [1]: 86.5% | MEAN CORPUSCULAR HEMOGLOBIN [1]: 24.35 pg | MEAN CORPUSCULAR HEMOGLOBIN CONCENTRATION [1]: 37.57 G/DL | MEAN CORPUSCULAR VOLUME [1]: 64.8 fL | MONOCYTE [1]: 2.67% | NEUTROPHIL [1]: 10.5% | NUCLEATED RED BLOOD CELLS [1]: 0.17 /100WBC | PLATELET COUNT [1]: 1026.17 x10E3/uL | ALANINE AMINOTRANSFERASE [1]: 52.67 u/L | ALBUMIN [1]: 4.17 G/DL | ALKALINE PHOSPHATASE [1]: 331 u/L | ASPARTATE AMINOTRANSFERASE [1]: 92.33 u/L | BLOOD UREA NITROGEN [1]: 15.33 mg/dL | CARBON DIOXIDE [1]: 26.17 mmol/L | CHLORIDE [1]: 103.17 MEQ/L | CHOLESTEROL [1]: 73.67 mg/dL | CREATINE PHOSPHOKINASE [1]: 472.83 u/L | CREATININE [1]: 0.29 mg/dL | GLUCOSE [1]: 178.5 mg/dL | LACTATE DEHYDROGENASE [1]: 244.83 u/L | LIPASE [1]: 10.67 u/L | PHOSPHORUS [1]: 12.45 mg/dL | POTASSIUM [1]: 6.35 MEQ/L | SODIUM [1]: 144.27 MEQ/L | TOTAL BILIRUBIN [1]: 0.13 mg/dL | TOTAL PROTEIN [1]: 5.77 G/DL | URIC ACID [1]: 2.08 mg/dL | ABSOLUTE BASOPHIL [2]: 0 CELLS/uL | ABSOLUTE EOSINOPHIL [2]: 23.5 CELLS/uL | ABSOLUTE LYMPHOCYTE [2]: 12797.33 CELLS/uL | ABSOLUTE MONOCYTE [2]: 465.5 CELLS/uL | ABSOLUTE SEGMENTED NEUTROPHIL [2]: 1313.67 CELLS/uL | BASOPHIL [2]: 0% | EOSINOPHIL [2]: 0.17% | ERYTHROCYTE COUNT [2]: 5.76 x10E6/uL | HEMATOCRIT [2]: 36.72% | HEMOGLOBIN [2]: 13.72 G/DL | LEUKOCYTE COUNT [2]: 14.6 x10E3/uL | LYMPHOCYTE [2]: 87.5% | MEAN CORPUSCULAR HEMOGLOBIN [2]: 23.8 pg | MEAN CORPUSCULAR HEMOGLOBIN CONCENTRATION [2]: 37.35 G/DL | MEAN CORPUSCULAR VOLUME [2]: 63.72 fL | MONOCYTE [2]: 3.17% | NEUTROPHIL [2]: 9.17% | NUCLEATED RED BLOOD CELLS [2]: 0.33 /100WBC | PLATELET COUNT [2]: 1270.67 x10E3/uL | ALANINE AMINOTRANSFERASE [2]: 50.5 u/L | ALBUMIN [2]: 4.32 G/DL | ALKALINE PHOSPHATASE [2]: 339.67 u/L | ASPARTATE AMINOTRANSFERASE [2]: 88 u/L | BLOOD UREA NITROGEN [2]: 17 mg/dL | CARBON DIOXIDE [2]: 25 mmol/L | CHLORIDE [2]: 103.83 MEQ/L | CHOLESTEROL [2]: 71.33 mg/dL | CREATINE PHOSPHOKINASE [2]: 281.83 u/L | CREATININE [2]: 0.26 mg/dL | GLUCOSE [2]: 161.67 mg/dL | LACTATE DEHYDROGENASE [2]: 191.17 u/L | LIPASE [2]: 10.17 u/L | PHOSPHORUS [2]: 11.72 mg/dL | POTASSIUM [2]: 6.76 MEQ/L | SODIUM [2]: 145.17 MEQ/L | TOTAL BILIRUBIN [2]: 0.2 mg/dL | TOTAL PROTEIN [2]: 6.15 G/DL | URIC ACID [2]: 2 mg/dL | ABSOLUTE BASOPHIL [3]: 0 CELLS/uL | ABSOLUTE EOSINOPHIL [3]: 0 CELLS/uL | ABSOLUTE LYMPHOCYTE [3]: 12954 CELLS/uL | ABSOLUTE MONOCYTE [3]: 520 CELLS/uL | ABSOLUTE SEGMENTED NEUTROPHIL [3]: 1492.67 CELLS/uL | BASOPHIL [3]: 0% | EOSINOPHIL [3]: 0% | ERYTHROCYTE COUNT [3]: 5.66 x10E6/uL | HEMATOCRIT [3]: 34.97% | HEMOGLOBIN [3]: 13.17 G/DL | LEUKOCYTE COUNT [3]: 14.97 x10E3/uL | LYMPHOCYTE [3]: 86.33% | MEAN CORPUSCULAR HEMOGLOBIN [3]: 23.27 pg | MEAN CORPUSCULAR HEMOGLOBIN CONCENTRATION [3]: 37.67 G/DL | MEAN CORPUSCULAR VOLUME [3]: 61.73 fL | MONOCYTE [3]: 3.67% | NEUTROPHIL [3]: 10% | NUCLEATED RED BLOOD CELLS [3]: 0 /100WBC | PLATELET COUNT [3]: 1157.33 x10E3/uL | ALANINE AMINOTRANSFERASE [3]: 52.67 u/L | ALBUMIN [3]: 4.23 G/DL | ALKALINE PHOSPHATASE [3]: 369.67 u/L | ASPARTATE AMINOTRANSFERASE [3]: 95.67 u/L | BLOOD UREA NITROGEN [3]: 14.33 mg/dL | CARBON DIOXIDE [3]: 26 mmol/L | CHLORIDE [3]: 102.33 MEQ/L | CHOLESTEROL [3]: 93.67 mg/dL | CREATINE PHOSPHOKINASE [3]: 235.67 u/L | CREATININE [3]: 0.28 mg/dL | GLUCOSE [3]: 155 mg/dL | LACTATE DEHYDROGENASE [3]: 140.33 u/L | LIPASE [3]: 12 u/L | PHOSPHORUS [3]: 12.77 mg/dL | POTASSIUM [3]: 6.52 MEQ/L | SODIUM [3]: 144.23 MEQ/L | TOTAL BILIRUBIN [3]: 0.2 mg/dL | TOTAL PROTEIN [3]: 5.83 G/DL | URIC ACID [3]: 1.4 mg/dL
